Legend:
[1] = molecular target: T1, human muscarinic M1 receptor (Homo sapiens, UniProt P11229); test: Alphascreen Surefire phospho-ERK1/2 functional assay, M1; format: cell-based; settings: for EC50 / M1 % Emax cf. ACh: CHO cells stably expressing human M1; for EC50: phospho-ERK1/2, read-out: pEC50 M1 (converted); for Emax: CHO, read-out: M1 % Emax cf. ACh, CHO cells stably expressing human M1; for Emax / M1 % Emax cf. ACh: Emax relative to ACh
T1 construct: expressed in transfected cells
T1 sequence (P11229 1-460): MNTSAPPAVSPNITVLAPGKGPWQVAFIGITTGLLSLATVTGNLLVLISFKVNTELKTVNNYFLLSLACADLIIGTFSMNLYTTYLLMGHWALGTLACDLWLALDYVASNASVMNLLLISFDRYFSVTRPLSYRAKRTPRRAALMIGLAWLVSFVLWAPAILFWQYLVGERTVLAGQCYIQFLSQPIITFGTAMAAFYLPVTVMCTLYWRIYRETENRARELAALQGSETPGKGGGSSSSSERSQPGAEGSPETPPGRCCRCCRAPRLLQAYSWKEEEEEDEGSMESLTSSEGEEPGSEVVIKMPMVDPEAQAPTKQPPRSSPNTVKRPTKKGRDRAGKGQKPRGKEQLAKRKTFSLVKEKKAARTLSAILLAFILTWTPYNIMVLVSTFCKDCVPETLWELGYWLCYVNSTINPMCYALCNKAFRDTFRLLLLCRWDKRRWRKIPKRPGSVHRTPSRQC

[2] = molecular target: T2, human muscarinic M4 receptor (Homo sapiens, UniProt P08173); test: Alphascreen Surefire phospho-ERK1/2 functional assay, M4; format: cell-based; settings: for EC50: read-out: pEC50 M4 (converted); for Emax: CHO, read-out: M4 % Emax cf. ACh, CHO cells stably expressing human M4; for Emax / M4 % Emax cf. ACh: Emax relative to ACh
T2 construct: expressed in transfected cells
T2 sequence (P08173 1-479): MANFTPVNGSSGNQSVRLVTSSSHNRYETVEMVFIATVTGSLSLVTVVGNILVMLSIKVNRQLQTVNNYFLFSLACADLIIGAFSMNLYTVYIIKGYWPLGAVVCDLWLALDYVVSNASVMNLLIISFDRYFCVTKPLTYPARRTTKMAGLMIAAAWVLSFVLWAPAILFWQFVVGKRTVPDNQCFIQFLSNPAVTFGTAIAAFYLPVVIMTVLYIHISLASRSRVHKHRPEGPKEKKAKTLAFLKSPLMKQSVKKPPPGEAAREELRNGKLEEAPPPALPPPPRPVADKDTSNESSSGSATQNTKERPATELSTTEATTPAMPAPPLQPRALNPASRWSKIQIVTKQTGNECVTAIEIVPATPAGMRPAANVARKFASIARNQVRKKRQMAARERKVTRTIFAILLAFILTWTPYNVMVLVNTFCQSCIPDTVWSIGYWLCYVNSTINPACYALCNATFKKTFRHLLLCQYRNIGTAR
Experimental: (§1) CHO cells stably expressing the human muscarinic M1, M2, M3 or M4 receptor were plated (25K/well) onto 96-well tissue culture plates in MEM-alpha+10% dialysed FBS. Once adhered, cells were serum-starved overnight. Agonist stimulation was performed by the addition of 5 μL agonist to the cells for 5 min (37° C.). Media was removed and 50 μL of lysis buffer added. After 15 min, a 4 μL sample was transferred to 384-well plate and 7 μL of detection mixture added. Plates were incubated for 2 h with gentle agitation in the dark and then read on a PHERAstar plate reader.
(§2) pEC50 and Emax figures were calculated from the resulting data for each receptor subtype.

[3] = molecular target: T3, human muscarinic M2 receptor (Homo sapiens, UniProt P08172); test: Alphascreen Surefire phospho-ERK1/2 functional assay, M2; settings: for Emax: CHO, read-out: M2 % Emax cf. ACh, CHO cells stably expressing human M2; for Emax / M2 % Emax cf. ACh: Emax relative to ACh; for EC50: pEC50 M2, CHO cells stably expressing human M2; for EC50 / pEC50 M2: phospho-ERK1/2; for M2 % Emax cf. ACh / pEC50 M2: CHO cells stably expressing human M2
T3 sequence (P08172 1-466): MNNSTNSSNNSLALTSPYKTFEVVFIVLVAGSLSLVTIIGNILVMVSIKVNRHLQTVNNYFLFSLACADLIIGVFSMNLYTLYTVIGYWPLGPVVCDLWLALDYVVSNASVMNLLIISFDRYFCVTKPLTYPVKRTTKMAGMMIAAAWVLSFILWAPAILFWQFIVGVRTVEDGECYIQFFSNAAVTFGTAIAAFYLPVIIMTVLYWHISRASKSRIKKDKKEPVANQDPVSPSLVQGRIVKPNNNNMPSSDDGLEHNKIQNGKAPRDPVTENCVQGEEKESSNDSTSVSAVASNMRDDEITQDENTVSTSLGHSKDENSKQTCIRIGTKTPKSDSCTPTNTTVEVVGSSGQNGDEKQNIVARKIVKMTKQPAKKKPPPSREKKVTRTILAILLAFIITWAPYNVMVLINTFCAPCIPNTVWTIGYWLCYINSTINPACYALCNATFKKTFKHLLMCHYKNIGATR
Experimental: as §1, §2

[4] = molecular target: human muscarinic M3 receptor (Homo sapiens, UniProt P20309); test: Alphascreen Surefire phospho-ERK1/2 functional assay, M3; settings: for Emax: CHO, read-out: M3 % Emax cf. ACh, CHO cells stably expressing human M3; for Emax / M3 % Emax cf. ACh: Emax relative to ACh; for M3 % Emax cf. ACh / pEC50 M3: CHO cells stably expressing human M3; for pEC50 M3: phospho-ERK1/2
Experimental: as §1, §2

[5] = CHO cells stably expressing human M4, phospho-ERK1/2
[6] = CHO cells stably expressing human M4

human muscarinic M3 receptor, sequence (P20309 whole entry): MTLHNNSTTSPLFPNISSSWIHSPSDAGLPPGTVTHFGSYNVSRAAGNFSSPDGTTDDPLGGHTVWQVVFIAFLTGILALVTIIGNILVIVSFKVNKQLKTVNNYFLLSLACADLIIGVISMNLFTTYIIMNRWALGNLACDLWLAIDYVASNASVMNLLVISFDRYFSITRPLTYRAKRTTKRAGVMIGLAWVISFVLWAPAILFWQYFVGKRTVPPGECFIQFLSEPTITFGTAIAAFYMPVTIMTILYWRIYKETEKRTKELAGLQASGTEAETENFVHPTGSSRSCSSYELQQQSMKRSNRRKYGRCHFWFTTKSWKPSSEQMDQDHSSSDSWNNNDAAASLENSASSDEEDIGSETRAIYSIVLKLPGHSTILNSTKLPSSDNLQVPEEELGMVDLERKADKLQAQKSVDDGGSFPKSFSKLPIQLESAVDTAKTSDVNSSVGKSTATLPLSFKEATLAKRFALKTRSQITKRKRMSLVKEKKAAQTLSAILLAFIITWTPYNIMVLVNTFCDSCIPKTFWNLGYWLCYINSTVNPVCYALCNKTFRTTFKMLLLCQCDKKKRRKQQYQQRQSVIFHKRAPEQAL

Row | SMILES | EC50 [1] | Emax [1] | EC50 [2, 5] | Emax [2] | Emax [3] | EC50 [3] | EC50 [4] | Emax [4] | M1 % Emax cf. ACh [1] | M4 % Emax cf. ACh [2, 6] | pEC50 M4 [2, 5] | M2 % Emax cf. ACh [3] | pEC50 M2 [3] | M3 % Emax cf. ACh [4] | pEC50 M3 [4]
1 | CCOC(=O)N1CCC2(CC(N3CCC4(CC3)OC(=O)N(C3CC3)C4CC)C2)C1 (mixture of isomers) [4-47 mixture of diastereomers] | 1000 nM | 86% | 63.1 nM | 106% | 7% | > 20000 nM | > 20000 nM | 7% | – | – | – | – | – | – | –
2 | CCOC(=O)N1CCC2(CC(N3CCC4(CC3)OC(=O)N(OC)C4CC)C2)C1 (mixture of isomers) [4-48 mixture of diastereomers] | 501 nM | 56% | 100 nM | 77% | 3% | > 20000 nM | > 20000 nM | 11% | – | – | – | – | – | – | –
3 | CCOC(=O)N1CC2(CCC(N3CCC4(CC3)OC(=O)N(CC)C4CC)C2)C1 (mixture of isomers) [8-2 mixture of diastereomers] | 200 nM | 65% | 10 nM | 30% | 1% | > 20000 nM | > 20000 nM | 1% | – | – | – | – | – | – | –
4 | CCOC(=O)N1CC2(CC(N3CCC4(CC3)OC(=O)N(CC)C4CC)C2)C1 (racemic) [2-2 racemic] | 2000 nM | 74% | 200 nM | 69% | 71% | > 20000 nM | > 20000 nM | 27% | – | – | – | – | – | – | –
5 | CCOC(=O)N1CC2(CCC(N3CCC4(CC3)CNC(=O)C4)C2)C1 (racemic) [7-1 racemic] | 5.01 nM | 26% | > 20000 nM | 14% | 0% | > 20000 nM | > 20000 nM | 4% | – | – | – | – | – | – | –
6 | CCOC(=O)N1CC2(CC(N3CCC4(CC3)OC(=O)NC4CC)C2)C1 (single isomer, unassigned) [2-1 Isomer 1] | 251 nM | – | – | – | – | – | – | – | (107) % | (117) % | 6.9 | (15) % | <4.7 | (9) % | <4.7
7 | CCOC(=O)N1CC2(CC(N3CCC4(CC3)OC(=O)NC4CC)C2)C1 (single isomer, unassigned) [2-1 Isomer 2] | 158 nM | 106% | 126 nM | 108% | 15% | > 20000 nM | > 20000 nM | – | – | – | – | – | – | (4) % | –
8 | COC(=O)N1CCC2(CC(N3CCC4(CC3)CNC(=O)C4)C2)C1 (single isomer, unassigned) [3-1 Isomer 2] | 79.4 nM | 87% | 100 nM | 50% | 14% | > 20000 nM | > 20000 nM | 20% | – | – | – | – | – | – | –
9 | CCOC(=O)N1CCC2(CC(N3CCC4(CC3)CC(=O)NC4C)C2)C1 (single isomer, unassigned) [3-3 Isomer 2] | 158 nM | 97% | 200 nM | 81% | 2% | > 20000 nM | > 20000 nM | 7% | – | – | – | – | – | – | –
10 | CCC1NC(=O)CC12CCN(C1CC3(CCN(C(=O)OC)C3)C1)CC2 (single isomer, unassigned) [3-4 Isomer 3] | 79.4 nM | – | 25.1 nM | – | – | > 20000 nM | > 20000 nM | 24% | (101) % | (71) % | – | (8) % | – | – | –
11 | CCC1NC(=O)CC12CCN(C1CC3(CCN(C(=O)OC)C3)C1)CC2 (single isomer, unassigned) [3-4 Isomer 4] | 63.1 nM | – | 6.31 nM | – | – | – | – | – | (90) % | (76) % | – | (20) % | <4.7 | (17) % | <4.7
12 | CCOC(=O)N1CCC2(CC(N3CCC4(CC3)CC(=O)NC4CC)C2)C1 (single isomer, unassigned) [3-5 Isomer 2] | 25.1 nM | 96% | 3.16 nM | 108% | 16% | > 20000 nM | > 20000 nM | 10% | – | – | – | – | – | – | –
13 | CCOC(=O)N1CCC2(CC(N3CCC4(CC3)CC(=O)NC4Cc3ccccc3)C2)C1 (single isomer, unassigned) [3-8 Isomer 2] | 12.6 nM | 110% | 79.4 nM | 98% | 33% | > 20000 nM | > 20000 nM | 53% | – | – | – | – | – | – | –
14 | [2H]C([2H])([2H])OC(=O)N1CCC2(CC(N3CCC4(CC3)CNC(=O)O4)C2)C1 (single isomer, unassigned) [4-2 Isomer 2] | 251 nM | 113% | 200 nM | 76% | 13% | > 20000 nM | > 20000 nM | 42% | – | – | – | – | – | – | –

The next lines start with the values.

Row | EC50 [1] | Emax [1] | EC50 [2, 5] | Emax [2] | Emax [3] | EC50 [3] | EC50 [4] | Emax [4] | M1 % Emax cf. ACh [1] | M4 % Emax cf. ACh [2, 6] | pEC50 M4 [2, 5] | M2 % Emax cf. ACh [3] | pEC50 M2 [3] | M3 % Emax cf. ACh [4] | pEC50 M3 [4] | SMILES
15 | 10 nM | 70% | 2 nM | 70% | 0% | > 20000 nM | > 20000 nM | 2% | – | – | – | – | – | – | – | CCOC(=O)N1CC2(CCC(N3CCC4(CC3)OC(=O)NC4CC)C2)C1 (mixture of isomers) [8-1 mixture of diastereomers]
16 | 200 nM | 63% | 7.94 nM | 91% | 4% | > 20000 nM | > 20000 nM | 1% | – | – | – | – | – | – | – | CCOC(=O)N1CC2(CCC(N3CCC4(CC3)OC(=O)N(CC)C4(C)C)C2)C1 (racemic) [8-4 racemic]
17 | 15.8 nM | 87% | 20 nM | 50% | 3% | > 20000 nM | > 20000 nM | 2% | – | – | – | – | – | – | – | CCOC(=O)N1CCC2(CC(N3CCC4(CC3)CNC(=O)C4)C2)C1 (single isomer, unassigned) [3-2 Isomer 2]
18 | 25.1 nM | 101% | 79.4 nM | 57% | 11% | > 20000 nM | > 20000 nM | 14% | – | – | – | – | – | – | – | COC(=O)N1CCC2(CC(N3CCC4(CC3)CC(=O)NC4Cc3ccccc3)C2)C1 (single isomer, unassigned) [3-7 Isomer 2]
19 | 794 nM | 62% | > 20000 nM | 47% | 4% | > 20000 nM | > 20000 nM | 14% | – | – | – | – | – | – | – | CCOC(=O)N1CCC2(CC(N3CCC4(CNC(=O)C4)C(F)C3)C2)C1 (single isomer, unassigned) [3-9 Isomer 2]
20 | 126 nM | 104% | 126 nM | 86% | 18% | > 20000 nM | > 20000 nM | 11% | – | – | – | – | – | – | – | COC(=O)N1CCC2(CC(N3CCC4(CC3)CNC(=O)O4)C2)C1 (single isomer, unassigned) [4-1 Isomer 2]

Reference: patent US10167284B2, “Spirocyclic compounds as agonists of the muscarinic M1 receptor and/or M4 receptor” (HEPTARES THERAPEUTICS LIMITED, priority 2015, dated 2019)
